In US10473574B2, “Assembly for assessing drug permeability with adjustable biomimetic properties” (Syddansk Universitet, priority 2014, dated 2019):

Key:
in vitro = test: in vitro
Description: A sheet of cellulose hydrate was prewashed in demineralized water. The sheet was put on a flat surface and sprayed with a 1% (M/M) solution of egg yolk lecithin (E-80, Lipoid GmbH, Ludwigshafen, Germany) in ethanol. […] Once the organic solvent was evaporated, two coated sheets were placed one upon the other, sandwiching the phospholipids.
Frantz cells with a permeation surface of 1 cm^2, a maximum volume in the upper compartment of 1.8 mL and a fixed volume in the bottom compartment of 8 mL were used.
The barrier was placed in between of the donor and the acceptor chamber, and a permeability experiment was performed at 25° C. […]
8 mL of phosphate buffer solution was placed into the lower compartment. The barrier was placed, and at time zero (start of the experiment) 1.5 mL of a 10 mM phosphate buffer solution of calcein was placed in the upper compartment. Every 60 minutes, 0.2 mL of the solution in the lower compartment were withdrawn and calcein concentration quantified by fluorescence spectroscopy. The removed volume was replaced with an equivalent amount of fresh buffer.
For all permeability studies, Franz diffusion cells with a surface area of 1 cm^2, upper chamber nominal volume of 2 mL and lower chamber volume of 8 mL were employed. The donor phase (upper chamber) was filled with 1.5 mL hydrophilic marker calcein (5 mM) and different surfactants and solvents, whereas the acceptor compartment (lower chamber) was filled with 8 mL PBS (7.4±0.05). The barrier was placed between the donor and acceptor compartment and the flux (3) of calcein was measured over time. The permeability studies were carried out over a 5 hours period, and samples of 200 μL were withdrawn from the acceptor chamber every 30 min for the first 2 hours and then every 60 min. The withdrawn sample volume was replaced with an equal amount of fresh PBS at each time point. […]

[1] = Permeability of calcein through the empty barrier support (no lipid layer); type: in vitro ADME; conditions: pH 7.4, calcein 5 mM donor, PBS acceptor
Description: It is visible that the permeation of calcein through the empty barrier support is much faster. Specifically, the permeability of calcein is approx. 10 times higher as compared to the barrier of the present invention.

**Q.** Which “permeability with FeSSIF as acceptor media versus other acceptor media” value (in vitro) does the source give for `Cn1c(=O)c2c(ncn2C)n(C)c1=O` [caffeine] here?
**A.** Its value is “unchanged”.

**Q.** Which results are given for `O=C(O)CN(CC(=O)O)Cc1cc2c(cc1O)Oc1cc(O)c(CN(CC(=O)O)CC(=O)O)cc1C21OC(=O)c2ccccc21` [calcein]?
**A.** change of permeability with Polysorbat 80 (in vitro): not increased, but decreased; influence of lipid composition of the barrier on permeability (in vitro): strong influence; increase of permeability with 5% Cremophor relative to PBS (in vitro; 5 h, 5 mM, pH 7.4): ~2 fold; Papp at 5 h, 5 mM (in vitro; pH 7.4, Papp in PBS): 2.7 ± 0.5 ×10⁻⁶ cm/s; Papp (in vitro; pH 7.4, permeability coefficient (P)): 1.2 ± 0.1 ×10⁻⁶ cm/s; Papp at 5 h, 5 mM [1]: 16.5 ± 1 ×10⁻⁶ cm/s

**Q.** For `CC(C)Cc1ccc(C(C)C(=O)O)cc1` (stereo not drawn) [ibuprofen], which “influence of lipid composition of the barrier on permeability” value (in vitro) is on record?
**A.** Its value is “strong influence”.

**Q.** For `CC(C)(C)NCC(O)COc1cccc2c1CC(O)C(O)C2` (stereo not drawn) [nadolol], which “influence of lipid composition of the barrier on permeability” value (in vitro) is on record?
**A.** Its value is “strong influence”.
